For 33 compounds, Ki results are on record in US11033539B2, “Compounds of formulas (VII), (VIII), (IX), (XI), (XII), (XIII), and (XIV) as muscarinic receptor 4(M4) antagonists for treating neurological diseases” (Neurocrine Biosciences, Inc., priority 2015, dated 2021).

For this test, the target named is human M4 receptor (Homo sapiens (Human), UniProt P08173). The test can be described thus: Radioligand (tritiated N-methylscopolamine) binding assay, M4. Conditions: Ki against the M4 receptor; membranes from CHO cells expressing human M4; tritiated N-methylscopolamine 1.5 nM; read-out: Ki. As to the method: Binding affinity (Ki) of compounds was measured by inhibition of radioligand binding to membranes from CHO cells expressing human M1, M2, M3, M4 and M5 receptors. Membranes were prepared by nitrogen cavitation and differential centrifugation as previously described (Hoare et al., Mol. Pharmacol. 2003 March; 63(3): 751-65). The radioligand employed was tritiated N-methylscopolamine, used at a concentration of 1.5 nM. A dose-response of twelve concentrations of compound was used, ranging from 10 μM to […]. The assay buffer was 50 mM HEPES, 100 mM NaCl, 5 mM MgCl2, 1 mM ethylenediaminetetraacetic acid, pH-adjusted to pH 7.4. Membranes, radioligand and compound were incubated together for 90 minutes at 37° C., in a total volume of 150 μl in a 96-well plate. Receptor-bound radioligand was then collected by harvesting the assay over glass fiber filters pretreated with polyethylenimine to trap the cell membranes, using rapid vacuum filtration. Harvesting and radioactivity counting was conducted as previously described (see, e.g., Hoare et al., Mol. Pharmacol. 2003 63(3):751-65); Erratum at Mol. Pharmacol. 2005 July; 68(1): 260).
human M4 receptor, sequence (P08173 whole entry): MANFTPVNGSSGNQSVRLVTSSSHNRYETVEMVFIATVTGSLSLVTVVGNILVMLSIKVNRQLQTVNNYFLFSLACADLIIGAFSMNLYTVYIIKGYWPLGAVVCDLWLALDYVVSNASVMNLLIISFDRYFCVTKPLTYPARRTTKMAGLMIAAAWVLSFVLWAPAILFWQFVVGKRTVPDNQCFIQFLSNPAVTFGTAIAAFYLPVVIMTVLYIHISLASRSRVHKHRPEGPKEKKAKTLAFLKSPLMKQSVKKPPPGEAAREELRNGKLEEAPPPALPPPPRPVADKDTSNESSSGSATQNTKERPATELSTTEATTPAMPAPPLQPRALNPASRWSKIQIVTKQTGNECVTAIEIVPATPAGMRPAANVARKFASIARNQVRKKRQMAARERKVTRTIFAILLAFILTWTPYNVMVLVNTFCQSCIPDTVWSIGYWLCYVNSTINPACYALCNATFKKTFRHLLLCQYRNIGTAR

What is called Ki is a dissociation constant, usually derived from enzyme kinetics or from competition with a known ligand. As for “4-(benzyloxy)-N-{2-[1-(pyridin-3-ylmethyl)piperidin-4-yl]ethyl}benzamide [11-20]”, the Ki was 100 to 1000 nM.

With “4-phenoxy-N-{2-[1-(3-phenylpropyl)piperidin-4-yl]ethyl}benzamide [11-28]”, the inhibition constant (Ki) lay in the range of 100 to 1000 nM.

In the case of `CC(=O)O[C@H](CNC(=O)N1CCN(c2ccc(F)c(C#N)c2)C[C@H]1C)C1CCN(Cc2ccccc2)CC1` [3-2, (1S)-1-(1-benzylpiperidin-4-yl)-2-{[(2R)-4-(3-cyano-4-fluorophenyl)-2-methylpiperazine-1-carbonyl]amino}ethyl acetate], the Ki fell in the range of 10 to 100 nM.

Take `C[C@@H]1CN(c2ccc(F)c(C#N)c2)CCN1C(=O)N(C)C[C@@H](O)C1CCN(Cc2ccccc2)CC1` [3-3, (2R)-N-[(2S)-2-(1-benzylpiperidin-4-yl)-2-hydroxyethyl]-4-(3-cyano-4-fluorophenyl)-N,2-dimethylpiperazine-1-carboxamide]: the inhibition constant Ki lay within 100 to 1000 nM.

For `C[C@@H]1CN(c2ccc(F)c(C#N)c2)CCN1C(=O)N(C)CCC1CCN(Cc2ccccc2)CC1` [3-4, (2R)-N-[2-(1-benzylpiperidin-4-yl)ethyl]-4-(3-cyano-4-fluorophenyl)-N,2-dimethylpiperazine-1-carboxamide], the inhibition constant (Ki) lay within 100 to 1000 nM.

Consider `CO[C@H](CNC(=O)N1CCN(c2ccc(F)c(C#N)c2)C[C@H]1C)C1CCN(Cc2ccccc2)CC1` [3-6, (2R)-N-[(2S)-2-(1-benzylpiperidin-4-yl)-2-methoxyethyl]-4-(3-cyano-4-fluorophenyl)-2-methylpiperazine-1-carboxamide], for which the Ki lay within 10 to 100 nM.

For the compound `C[C@@H]1CN(c2ccc(OC(F)(F)F)c(C#N)c2)CCN1C(=O)NCCC1CCN(Cc2ccc(I)cc2)CC1` [3-7, (2R)-4-[3-cyano-4-(trifluoromethoxy)phenyl]-N-(2-{1-[(4-iodophenyl)methyl]piperidin-4-yl}ethyl)-2-methylpiperazine-1-carboxamide], the Ki was in the range of 10 to 100 nM.

On to `C[C@@H]1CN(c2nccc(C#N)n2)CCN1C(=O)NCCC1CCN(Cc2ccccc2)CC1` [3-15, (2R)-N-[2-(1-benzylpiperidin-4-yl)ethyl]-4-(4-cyanopyrimidin-2-yl)-2-methylpiperazine-1-carboxamide], for which the Ki was 10 to 100 nM.

In the case of `C[C@@H]1CN(c2cc(F)c(F)c(F)c2)CCN1C(=O)NCCC1(CO)CCN(Cc2ccccc2)CC1` [3-20, (2R)-N-{2-[1-benzyl-4-(hydroxymethyl)piperidin-4-yl]ethyl}-2-methyl-4-(3,4,5-trifluorophenyl)piperazine-1-carboxamide], the inhibition constant Ki lay in the range of 10 to 100 nM.

For the compound `COc1ccnc(N2CCN(C(=O)NCCC3CCN(Cc4ccccc4)CC3)[C@H](C)C2)n1` [4-2, (2R)-N-[2-(1-benzylpiperidin-4-yl)ethyl]-4-(4-methoxypyrimidin-2-yl)-2-methylpiperazine-1-carboxamide], the Ki lay within 100 to 1000 nM.

In the case of `Cc1cc(N2CCN(C(=O)NCCC3CCN(Cc4ccccc4)CC3)[C@H](C)C2)ccc1C#N` [4-4, (2R)-N-[2-(1-benzylpiperidin-4-yl)ethyl]-4-(4-cyano-3-methylphenyl)-2-methylpiperazine-1-carboxamide], the Ki was 100 to 1000 nM.

For the compound `COc1cccnc1N1CCN(C(=O)NCCC2CCN(Cc3ccccc3)CC2)[C@H](C)C1` [4-8, (2R)-N-[2-(1-benzylpiperidin-4-yl)ethyl]-4-(3-methoxypyridin-2-yl)-2-methylpiperazine-1-carboxamide], the Ki lay in the range of 100 to 1000 nM.

For the compound `Cc1ccc(N2CCN(C(=O)NCCC3CCN(Cc4ccccc4)CC3)[C@H](C)C2)cn1` [4-9, (2R)-N-[2-(1-benzylpiperidin-4-yl)ethyl]-2-methyl-4-(6-methylpyridin-3-yl)piperazine-1-carboxamide], the inhibition constant (Ki) was in the range of 100 to 1000 nM.

For `C[C@@H]1CN(c2cncc(C#N)c2)CCN1C(=O)NCCC1CCN(Cc2ccccc2)CC1` [4-23, (2R)-N-[2-(1-benzylpiperidin-4-yl)ethyl]-4-(5-cyanopyridin-3-yl)-2-methylpiperazine-1-carboxamide], the Ki was in the range of 100 to 1000 nM.

As for `C[C@H]1CN(c2cc(F)c(F)c(F)c2)CCN1C(=O)NCCC1CCN(Cc2ccccc2)CC1` [4-24, (2S)-N-[2-(1-benzylpiperidin-4-yl)ethyl]-2-methyl-4-(3,4,5-trifluorophenyl)piperazine-1-carboxamide], the Ki is 10 to 100 nM.

As for `C[C@@H]1CN(c2ccc(C#N)cc2)CCN1C(=O)NCCC1CCN(Cc2ccccc2)CC1` [4-25, (2R)-N-[2-(1-benzylpiperidin-4-yl)ethyl]-4-(4-cyanophenyl)-2-methylpiperazine-1-carboxamide], the inhibitory constant (Ki) is 10 to 100 nM.

Take `COc1nc(N2CCN(C(=O)NCCC3CCN(Cc4ccccc4)CC3)[C@H](C)C2)ncc1C#N` [4-26, (2R)-N-[2-(1-benzylpiperidin-4-yl)ethyl]-4-(5-cyano-4-methoxypyrimidin-2-yl)-2-methylpiperazine-1-carboxamide]: the Ki is 10 to 100 nM.

Turning to `COc1nc(N2CCN(C(=O)NCCC3CCN(Cc4ccccc4)CC3)[C@H](C)C2)ncc1F` [4-27, (2R)-N-[2-(1-benzylpiperidin-4-yl)ethyl]-4-(5-fluoro-4-methoxypyrimidin-2-yl)-2-methylpiperazine-1-carboxamide], the inhibition constant (Ki) was in the range of 10 to 100 nM.

As for `C[C@@H]1CN(c2ccc(F)cc2)CCN1C(=O)NCCC1CCN(Cc2ccccc2)CC1` [4-30, (2R)-N-[2-(1-benzylpiperidin-4-yl)ethyl]-4-(4-fluorophenyl)-2-methylpiperazine-1-carboxamide], the inhibition constant Ki lay within 10 to 100 nM.

Consider `C[C@@H]1CN(c2ccc(C#N)cn2)CCN1C(=O)NCCC1CCN(Cc2ccccc2)CC1` [4-31, (2R)-N-[2-(1-benzylpiperidin-4-yl)ethyl]-4-(5-cyanopyridin-2-yl)-2-methylpiperazine-1-carboxamide], for which the Ki was 10 to 100 nM.

Take `C[C@@H]1CN(c2ccc(F)cc2F)CCN1C(=O)NCCC1CCN(Cc2ccccc2)CC1` [4-33, (2R)-N-[2-(1-benzylpiperidin-4-yl)ethyl]-4-(2,4-difluorophenyl)-2-methylpiperazine-1-carboxamide]: the Ki lay within 10 to 100 nM.

On to `C[C@@H]1CN(c2ccc(C(F)(F)F)nc2)CCN1C(=O)NCCC1CCN(Cc2ccccc2)CC1` [4-34, (2R)-N-[2-(1-benzylpiperidin-4-yl)ethyl]-2-methyl-4-[6-(trifluoromethyl)pyridin-3-yl]piperazine-1-carboxamide], for which the Ki lay in the range of 10 to 100 nM.

For `C[C@@H]1CN(c2ccc(F)nc2)CCN1C(=O)NCCC1CCN(Cc2ccccc2)CC1` [4-35, (2R)-N-[2-(1-benzylpiperidin-4-yl)ethyl]-4-(6-fluoropyridin-3-yl)-2-methylpiperazine-1-carboxamide], the inhibition constant (Ki) is 10 to 100 nM.

`C[C@@H]1CN(c2cc(F)c(F)cc2F)CCN1C(=O)NCCC1CCN(Cc2ccccc2)CC1` [4-36, (2R)-N-[2-(1-benzylpiperidin-4-yl)ethyl]-2-methyl-4-(2,4,5-trifluorophenyl)piperazine-1-carboxamide]: the Ki was 10 to 100 nM.

With `C[C@@H]1CN(c2cccc(F)c2F)CCN1C(=O)NCCC1CCN(Cc2ccccc2)CC1` [4-37, (2R)-N-[2-(1-benzylpiperidin-4-yl)ethyl]-4-(2,3-difluorophenyl)-2-methylpiperazine-1-carboxamide], the Ki was 10 to 100 nM.

Take `C[C@@H]1CN(c2nc(C#N)cc(C#N)n2)CCN1C(=O)NCCC1CCN(Cc2ccccc2)CC1` [4-38, (2R)-N-[2-(1-benzylpiperidin-4-yl)ethyl]-4-(4,6-dicyanopyrimidin-2-yl)-2-methylpiperazine-1-carboxamide]: the inhibitory constant (Ki) was in the range of 10 to 100 nM.

For the compound `COc1cc(C#N)cc(N2CCN(C(=O)NCCC3CCN(Cc4ccccc4)CC3)[C@H](C)C2)c1` [4-39, (2R)-N-[2-(1-benzylpiperidin-4-yl)ethyl]-4-(3-cyano-5-methoxyphenyl)-2-methylpiperazine-1-carboxamide], the Ki fell in the range of 10 to 100 nM.

Regarding `C[C@@H]1CN(c2cnc3ccccc3c2)CCN1C(=O)NCCC1CCN(Cc2ccccc2)CC1` [4-40, (2R)-N-[2-(1-benzylpiperidin-4-yl)ethyl]-2-methyl-4-(quinolin-3-yl)piperazine-1-carboxamide], the Ki was 10 to 100 nM.

Regarding `C[C@@H]1CN(c2ncc(F)cn2)CCN1C(=O)NCCC1CCN(Cc2ccccc2)CC1` [4-41, (2R)-N-[2-(1-benzylpiperidin-4-yl)ethyl]-4-(5-fluoropyrimidin-2-yl)-2-methylpiperazine-1-carboxamide], the Ki fell in the range of 10 to 100 nM.

Regarding `C[C@@H]1CN(c2ccc(C#N)cc2F)CCN1C(=O)NCCC1CCN(Cc2ccccc2)CC1` [4-43, (2R)-N-[2-(1-benzylpiperidin-4-yl)ethyl]-4-(4-cyano-2-fluorophenyl)-2-methylpiperazine-1-carboxamide], the inhibition constant (Ki) lay in the range of 10 to 100 nM.

For `C[C@@H]1CN(c2ccc(C#N)s2)CCN1C(=O)NCCC1CCN(Cc2ccccc2)CC1` [4-44, (2R)-N-[2-(1-benzylpiperidin-4-yl)ethyl]-4-(5-cyanothiophen-2-yl)-2-methylpiperazine-1-carboxamide], the Ki fell in the range of 10 to 100 nM.

In the case of `C[C@@H]1CN(c2cc(F)ccc2F)CCN1C(=O)NCCC1CCN(Cc2ccccc2)CC1` [4-45, (2R)-N-[2-(1-benzylpiperidin-4-yl)ethyl]-4-(2,5-difluorophenyl)-2-methylpiperazine-1-carboxamide], the Ki fell in the range of 10 to 100 nM.

On to `C[C@@H]1CN(c2ccc(F)cn2)CCN1C(=O)NCCC1CCN(Cc2ccccc2)CC1` [4-46, (2R)-N-[2-(1-benzylpiperidin-4-yl)ethyl]-4-(5-fluoropyridin-2-yl)-2-methylpiperazine-1-carboxamide], for which the Ki was in the range of 10 to 100 nM.
